Common to all, as to type: binding
For one assay, the target named is APOE (apolipoprotein E) (Homo sapiens, UniProt P02649). Briefly: microscale thermophoresis with labelled recombinant APOE.
For assay [1], the target named is T1, mouse TREM2 (mTREM2) (Mus musculus, UniProt Q99NH8).
T1 sequence (Q99NH8 19-227): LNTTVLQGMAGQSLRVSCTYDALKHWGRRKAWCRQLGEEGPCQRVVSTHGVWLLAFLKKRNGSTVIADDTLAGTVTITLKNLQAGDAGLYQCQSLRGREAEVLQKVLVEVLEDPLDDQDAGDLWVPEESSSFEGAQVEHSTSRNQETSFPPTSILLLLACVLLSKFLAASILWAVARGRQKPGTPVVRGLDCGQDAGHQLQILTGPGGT
As to the kind of experiment: microscale thermophoresis with labelled recombinant TREM2. A general note: Microscale thermophoresis detects binding through changes in fluorescence in a small temperature gradient.

The target in assay [2] is T2, human TREM2 (hTREM2) (Homo sapiens, UniProt Q9NZC2).
T2 sequence (Q9NZC2 19-230): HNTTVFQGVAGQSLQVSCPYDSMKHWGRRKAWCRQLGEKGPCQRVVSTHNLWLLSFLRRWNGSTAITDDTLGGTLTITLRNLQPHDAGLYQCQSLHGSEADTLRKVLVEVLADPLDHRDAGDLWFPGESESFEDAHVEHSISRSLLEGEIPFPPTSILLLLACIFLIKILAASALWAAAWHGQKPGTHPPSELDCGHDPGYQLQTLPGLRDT
The description is as above.

Another assay has as its target T3, rat TREM2 (rTREM2) (Rattus norvegicus, UniProt A0A6G8MV71).
T3 sequence (A0A6G8MV71 19-229): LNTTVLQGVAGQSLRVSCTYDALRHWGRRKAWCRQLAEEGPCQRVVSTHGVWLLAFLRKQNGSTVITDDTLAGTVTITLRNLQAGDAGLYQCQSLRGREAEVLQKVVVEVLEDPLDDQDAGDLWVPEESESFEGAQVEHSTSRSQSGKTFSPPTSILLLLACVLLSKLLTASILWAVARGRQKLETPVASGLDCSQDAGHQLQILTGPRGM
The assay is described as above.

Assay [3] has as its target T1, mouse TREM2 (mTREM2). Briefly: microscale thermophoresis.
Another assay addresses T4, TREM2 D104A (hTREM2) (Homo sapiens, UniProt Q9NZC2, D104A).
T4 sequence (Q9NZC2 19-174 D104A limits assumed): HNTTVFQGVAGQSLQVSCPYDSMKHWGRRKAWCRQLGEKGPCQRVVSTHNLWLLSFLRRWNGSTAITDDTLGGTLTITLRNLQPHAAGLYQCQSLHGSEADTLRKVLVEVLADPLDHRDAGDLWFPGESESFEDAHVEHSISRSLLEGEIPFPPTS
Briefly: microscale thermophoresis with labelled TREM2 D104A.

Assay [4] has as its target T2, human TREM2 (hTREM2). As to the kind of experiment: microscale thermophoresis.

APOE (apolipoprotein E), sequence (P02649 19-317): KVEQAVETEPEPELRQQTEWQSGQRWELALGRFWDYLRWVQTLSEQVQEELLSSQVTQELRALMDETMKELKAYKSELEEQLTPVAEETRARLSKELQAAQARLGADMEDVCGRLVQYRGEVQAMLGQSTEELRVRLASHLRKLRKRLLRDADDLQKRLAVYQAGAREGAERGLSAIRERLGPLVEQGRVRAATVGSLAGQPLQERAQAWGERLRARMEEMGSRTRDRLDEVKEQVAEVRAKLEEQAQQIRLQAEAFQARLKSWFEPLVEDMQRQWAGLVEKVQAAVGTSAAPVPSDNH

Broadly, the Kd is the equilibrium constant for the complex coming apart. As for `CCCCCCCCc1ccc(CC[C@](N)(CO)COP(=O)(O)O)cc1` [FTY720P], the dissociation constant (Kd) was 15.9 ± 7.41 µM on APOE (apolipoprotein E), 72.6 ± 21 µM on mouse TREM2 (mTREM2) [1], 6.75 ± 1.8 µM at human TREM2 (hTREM2) [2] and 7.17 ± 2.21 µM on rat TREM2 (rTREM2).

On to `CCCCCCCCCCCCC/C=C/[C@@H](O)[C@@H](N)COP(=O)(O)O` [S1P], for which the Kd worked out at 6.64 ± 1.68 µM on APOE (apolipoprotein E); 64.6 ± 16.6 µM on mouse TREM2 (mTREM2) [3]; 593 ± 97.6 µM on TREM2 D104A (hTREM2); 62.6 ± 11.9 µM at human TREM2 (hTREM2) [4]; 56.8 ± 14 µM on rat TREM2 (rTREM2).

The values are drawn from paper PMC9279640 (Acta Pharmaceutica Sinica. B, 2021).
